In this series the test system is patients with acute non-cardioembolic ischemic stroke. To be noted: 50 mg daily.

Molecules are shown by their SMILES.

Procedure: All participants were required to undergo at least two MRIs that met study requirements. In addition to the baseline MRI (obtained after the index stroke either before randomization or within 72 h after randomization), participants underwent a final study MRI at 26 weeks or as soon as possible after early termination of assigned study treatment. Patients were followed up for at least 26 weeks and up to 52 weeks and assessed for the occurrence of safety, efficacy, and adverse events at 2, 4, 8, 13, 20, 26, 32, 39, 46, and 52 (end of treatment) weeks after randomization, and again 2 weeks after the end of treatment visit. Adherence to assigned therapy was assessed by means of interview and pill count at each clinic visit.
The primary safety outcome was the composite of major bleeding and clinically relevant non-major bleeding, according to the criteria of the International Society on Thrombosis and Haemostasis (ISTH). […] Additional prespecified exploratory safety outcomes included haemorrhagic transformation within the qualifying stroke detected by baseline MRI performed post-study drug or on follow-up study MRIs based on the Heidelberg classification of severity (haemorrhagic infarct 1 or 2 or parenchymal haematoma 1 or 2). […]

On to `CC[C@@H](C(=O)Nc1ccc(C(N)=O)c(F)c1)n1cc(OC)c(-c2cc(Cl)ccc2-n2cc(C(F)(F)F)nn2)cc1=O` [Compound A, (4S)-2^4-chloro-4-ethyl-7^3-fluoro-3^5-methoxy-3^2,5-dioxo-14-(trifluoromethyl)-3^2H-6-aza-3(4,1)-pyridina-1(1)-[1,2,3]triazola-2(1,2),7(1)-dibenzenaheptaphane-7^4-carboxamide], for which the “Primary intracerebral haemorrhages, % participants” value is recorded as 1% and the “Primary intracerebral haemorrhages, n participants” value is on record as “three”.

Source of the values: patent publication US20240316019A1 (Bayer Aktiengesellschaft, priority 2023, published 2024).
